Where two headings read alike, the source gives them in different places.
Tests used:
[1] = tested on: Salmonella enterica ATCC 10708; assay: BCT test (bacterial contact time), 60 s, log reduction / effect fraction; CI by Compusyn; type: cell-based; conditions: Salmonella enterica, ATCC10708, 1 min
Procedure, shortened: (§1)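 Log-phase cultures (OD600 1-2) were resuspended in TSB at about 1×10^8 bacteria/mL and mixed 1:1 with ethanolic perfume combinations or single ingredients, five replicates each. After the stated contact time, serial dilutions were grown at 37° C and viable counts derived from OD600 turbidity; log reduction is versus ethanol control.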

[2] = tested on: Pseudomonas aeruginosa ATCC 15442; assay: as above; type: cell-based; conditions: Pseudomonas aeruginosa, ATCC15442, 1 min, BCT 60 s, in 25% EtOH
Procedure, shortened: as §1

[3] = tested on: S. haemolyticus 114126; assay: BCT test (bacterial contact time), 120 s, log reduction / effect fraction; CI by Compusyn; type: cell-based; conditions: Staphylococcus haemolyticus, 114126, 2 min
Method: S. haemolyticus: Suspensions of the S. haemolyticus 114126 strain, isolated from skin, were prepared as follows: Stock cultures (stored at −80° C.) were thawed and sub-cultured onto TSA-TW80 agar plate media, and incubated at 37° C. for 24 h to obtain single colonies. Single colonies of the primary cultures were streaked onto fresh TSA-TW80 plates and incubated at 37° C. for 24 h to prepare secondary cultures. Single colonies of secondary cultures were picked and used to inoculate 50 mL of BHI-TW80 broth. The inoculated broth was incubated at 37° C. at 180 rpm for 18 h. Aliquots (0.5 ml) of the 18 h culture were inoculated into 50 ml of fresh BHI-TW80 broth, and incubated at 37° C. at 180 rpm for approximately 3 hours. When the OD 600 nm value of the broth reached 1-2, cells were harvested by centrifugation at 5000 rpm for 10 min, and then resuspended in fresh BHI-TW80 broth at a concentration of 1-5×10^8 CFU/mL. This suspension was used as the bacterial suspension for the BCT test.
(§2) BCT Test: Test compositions at a range of concentrations (either combinations of more than one perfume ingredient, and comparative compositions comprising the single perfume ingredients) were prepared in ethanol. Five replicates of each test composition were added into 96-well microtiter plates (120 μl per well), with row B containing control compositions containing the ethanol solution alone. 120 μl of bacterial cell suspensions at a concentration of approximately 1×10^8 bacteria per mL (as prepared above) were added to each well of the microtiter plate. The bacterial suspensions were incubated with the test solutions for 45, 60, or 120 seconds. Following the incubation of the bacterial suspensions with the test solutions, serial dilutions of the bacterial suspensions were generated (three serial 1:10 dilutions, followed by 17 serial 1:2 dilutions), in multiwell microtiter plates.
(§3) Each plate was sealed and incubated at 37° C. under agitation (180 rpm). After incubation, the turbidity of the wells (OD600 nm) was determined using a Tecan microplate reader. Turbid wells were regarded as positive growth, due to the presence of viable cells. The total number of viable cells (log CFU) for each sample was calculated. And the log reduction for each test composition at the final concentration (dose) was calculated against the control sample of the ethanol solution.
(§4) Determination of Synergy via the Combination Index (CI): The CI was calculated using Compusyn software (ComboSyn, Inc., as created by Dr. Dorothy Chou in 2005), according to the manufacturer's instructions. The concentration of each test composition (combinations of more than one perfume ingredient, and comparative compositions comprising the single perfume ingredients used to generate the combination) and their corresponding effect fraction was entered, and the corresponding CI calculated.
(§5) When the calculated CI values were less than 0.9, the combination of perfume ingredients was regarded as having synergistic effect. When the calculated CI was between 1.0 a 0.9, the combination of perfume ingredients was regarded as having an additive effect. When the calculated CI was greater than 1.0, the combination of perfume ingredients was regarded as having an antagonistic effect.

[4] = tested on: C. xerosis ATCC 373; assay: as above; type: cell-based; conditions: Corynebacterium xerosis, ATCC373, 2 min
Method: C. xerosis: Suspensions of the C. xerosis ATCC 373 strain were prepared as follows: Stock cultures (stored at −80° C.) were thawed and subcultured onto Tryptic Soy Agar media with Tween 80 (TSA-TW80), and incubated at 37° C. for 48 h. The primary cultures were subcultured onto TSA-TW80 again, to prepare the secondary cultures. Single colonies of the secondary cultures were selected and used to inoculate 30 ml brain heart infusion broth with Tween 80 (BHI-TW80). The inoculated broth was incubated at 37° C. at 180 rpm for 24 h. Aliquots (1 ml) of the 24 h culture were inoculated into 30 ml of fresh BHI-TW80 broth media, and incubated at 37° C. at 180 rpm for 48 h. Aliquots (2-3 ml) of the 48 h culture were inoculated into four 50 ml of fresh BHI-TW80 broth media, and incubated at 37° C. 180 rpm for 4-6 hrs. When the OD 600 nm reached the target value of 1.6, cells were harvested by centrifugation at 5000 rpm for 10 min, and then resuspended in the same fresh BHI-TW80 at a concentration of 10^9 to 10^10 cfu/mL. This suspension was used as the bacterial suspension for the BCT test.
as §2, §3, §4, §5

[5] = tested on: S. aureus ATCC 6538; assay: BCT test (bacterial contact time), 60 s, log reduction / effect fraction; CI by Compusyn; type: cell-based, Staphylococcus aureus; conditions: Staphylococcus aureus, ATCC6538, 1 min, in 25% EtOH
Procedure, shortened: as §1

[6] = dose 0.1% w/v, contact 120 s, 25% EtOH
[7] = dose 0.125% w/v, contact 120 s, 25% EtOH
[8] = dose 0.15% w/v, contact 120 s, 25% EtOH

CC(C)=CCC/C(C)=C/CO [Geraniol Pur]
log reduction at 0.025 % strength ([1]; Dose 0.025 % w/v, BCT 60 s, in 25% EtOH): 0.2
log reduction at 0.03 % strength ([1]; Dose 0.03 % w/v, BCT 60 s, in 25% EtOH): 0.2
log reduction at 0.04 % strength ([1]; Dose 0.04 % w/v, BCT 60 s, in 25% EtOH): 2.4
log reduction at 0.045 % strength ([1]; Dose 0.045 % w/v, BCT 60 s, in 25% EtOH): 3.6
log reduction at 0.05 % strength ([1]; Dose 0.05 % w/v, BCT 60 s, in 25% EtOH, read-out: Log reduction): 4.9
log reduction at 0.03 % strength ([2]; Dose 0.03 % w/v): 0.2
log reduction at 0.04 % strength ([2]; Dose 0.040 % w/v): 1.4
log reduction at 0.05 % strength ([2]; Dose 0.05 % w/v): 3.9
log reduction at 0.06 % strength ([2]; Dose 0.06 % w/v): 5.9
log reduction at 0.08 % strength ([2]; Dose 0.08 % w/v): 7.5
log reduction at 0.05 % strength ([3]; dose 0.05% w/v, contact 120 s, 25% EtOH): -0.2
log reduction at 0.1 % strength [3, 6]: 2.7
log reduction at 0.125 % strength [3, 7]: 5.3
log reduction at 0.15 % strength [3, 8]: 7.1
log reduction at 0.1 % strength [4, 6]: 0.9
log reduction at 0.125 % strength [4, 7]: 3.6
log reduction at 0.15 % strength [4, 8]: 4.8
log reduction at 0.175 % strength ([4]; dose 0.175% w/v, contact 120 s, 25% EtOH): 6.8
log reduction at 0.2 % strength ([4]; dose 0.2% w/v, contact 120 s, 25% EtOH, read-out: Log reduction): 7
log reduction at 0.05 % strength ([5]; dose 0.050 % w/v, 60 s): 0.2
log reduction at 0.06 % strength ([5]; dose 0.060 % w/v, 60 s): 0.4
log reduction at 0.07 % strength ([5]; dose 0.070 % w/v, 60 s): 1.5
log reduction at 0.08 % strength ([5]; dose 0.080 % w/v, 60 s): 4
log reduction at 0.1 % strength ([5]; dose 0.100 % w/v, 60 s): 7.3

CC(C=O)Cc1ccc2c(c1)OCO2 (stereo not shown) [Heliopropanal, 3-(1,3-Benzodioxol-5-yl)-2-methylpropanal]
log reduction at 0.05 % strength [1]: 0
log reduction at 0.1 % strength [1]: 0.8
log reduction at 0.12 % strength [1]: 2.9
log reduction at 0.13 % strength [1]: 3.9
log reduction at 0.14 % strength [1]: 5.5
log reduction at 0.175 % strength ([2]; Dose 0.175 % w/v): 4.8
log reduction at 0.2 % strength ([2]; Dose 0.2 % w/v): 7.2
log reduction at 0.25 % strength ([2]; Dose 0.25 % w/v): 7.4
log reduction at 0.175 % strength [3]: 0.1
log reduction at 0.25 % strength [3]: 0.3
log reduction at 0.3 % strength [3]: 1.5
log reduction at 0.4 % strength [3]: 3.2
log reduction at 0.45 % strength [3]: 5.2
log reduction at 0.2 % strength [4]: 0.1
log reduction at 0.25 % strength [4]: 0.3
log reduction at 0.3 % strength [4]: 1.4
log reduction at 0.35 % strength [4]: 1.8
log reduction at 0.4 % strength [4]: 2.2
log reduction at 0.15 % strength ([5]; Dose 0.15 % w/v, BCT 60 s): 0.4
log reduction at 0.175 % strength ([5]; Dose 0.175 % w/v, BCT 60 s): 0.4
log reduction at 0.2 % strength ([5]; Dose 0.200 % w/v, BCT 60 s): 1.3
log reduction at 0.225 % strength ([5]; Dose 0.225 % w/v, BCT 60 s): 3.5
log reduction at 0.25 % strength ([5]; Dose 0.25 % w/v, BCT 60 s): 7.3
log reduction at 0.15 % strength ([5]; dose 0.150 % w/v, 60 s): 0.4
log reduction at 0.2 % strength ([5]; dose 0.200 % w/v, 60 s): 1.2
log reduction at 0.225 % strength ([5]; dose 0.225 % w/v, 60 s): 4.2
log reduction at 0.25 % strength ([5]; dose 0.250 % w/v, 60 s): 7
log reduction at 0.3 % strength ([5]; dose 0.300 % w/v, 60 s): 7.3
